These results are taken from ChEMBL document CHEMBL3507680, “University of Dundee, Gates Library screen for HepG2 cell viability”.

The structures appear in SMILES notation.

The data set is described as follows: Human HepG2 cell viability assay in 384 well format. Format: toxicity, cell-based. Set-up: dose 125 nL, time 70.5 hour; concentration not given beside the values. Conditions: HepG2 cells, read-out: Inhibition.
Take `Cc1nc(C)n(CC2CCCCN2CC(=O)Nc2c(C)n[nH]c2C)n1` (stereo not given): the cytotoxicity at 70.5 h is -1.79%.
The figure for `Cn1ncc2c(N3CCCN4CCC[C@H]4C3)nc(C(C)(C)C)nc21` is -7.18%.
`COc1ccc(-n2nc(C(C)C)nc2Cn2cncn2)cc1`: the cytotoxicity at 70.5 h is -8.35%.
The result for `Cc1cc(-c2nccs2)nc(C2CCN(Cc3ccncc3)CC2)n1` reads -0.926%; that for `COCCN1CCC(CNc2nccc(-c3cnn(C)c3)n2)CC1`, -3.27%; that for `CC(C)Oc1ccccc1CNC(=O)N1CCC(n2cncn2)CC1`, 26.9%.
With `CCn1cc(C(=O)Nc2ccccc2C(=O)OC)cn1`, the cytotoxicity at 70.5 h was found to be 13.1%.
The figure for `CCC(C)NC(=O)NCc1cc2n(n1)CCCN(C1CCCCC1)C2` (stereo not given) is 4.95%; for `CC(=O)NC1CCCN(C(=O)NCc2cccnc2N(C)C)C1` (stereo not given) it is 4.39%.
The figure for `COCCc1ncc(CN2C[C@H](C3CC3)[C@@H](N)C2)cn1` is -8.11%; for `COc1ccc(F)cc1CN1CCC(O)(CN2CCCCC2)C1` (stereo not given) it is -6.56%; for `CSCCN1CCC(NC(=O)OC(C)(C)C)CC1` it is -6.72%.
The figure for `COc1ccc(F)cc1C(=O)N1CCCC(CNS(C)(=O)=O)C1` (stereo not given) is 1.51%.
In the case of `O=C(CCn1cc(Cl)cn1)N1CCN(CCOc2ccccc2)CC1`, the cytotoxicity at 70.5 h is -4.12%.
The figure for `CN(C)C(=O)N1CCN(C(=O)c2ccn3cncc3c2)CC1` is 0.173%; for `CCCSc1ncc(-c2nccn2CCC(N)=O)cn1` it is -13.6%.
The figure for `CCOCC(O)CN1CCN(C(=O)c2cc(Cl)ccc2F)CC1` (stereo not given) is 2.85%; for `O=C(Nc1cn[nH]c1)N(CCCO)C1CCc2ccccc21` (stereo not given) it is -4.28%; for `Brc1cnc(NCc2ccccc2N2CCOCC2)nc1` it is -1.21%.
The figure for `Cc1nnc(N2CCCC3(CN(Cc4ccc(F)cc4)CCO3)C2)o1` (stereo not given) is -1.36%; for `Cn1ccnc1COc1ccc(NC(=O)C2CCCO2)cc1` (stereo not given) it is 3.57%; for `CC(C)N1c2sc(-c3ccsc3)nc2CC1C(=O)NC1CC1` (stereo not given) it is -5.25%.
Regarding `CSCCC(NC(N)=O)C(=O)Nc1ccc(-n2cccn2)nc1` (stereo not given), the cytotoxicity at 70.5 h is -7.37%.
With `Cn1cc(CNC(=O)Nc2ccc(S(=O)(=O)C(F)F)cc2)cn1`, the cytotoxicity at 70.5 h worked out at 0.531%.
The figure for `CC(C)c1nccn1-c1cncc(C2CCCN(C3CCCCC3)C2)n1` (stereo not given) is -0.366%.
As for `N#Cc1cccc(S(=O)(=O)NC(=O)C2CC(c3ccccc3)=NO2)c1` (stereo not given), the cytotoxicity at 70.5 h was -18.7%.
The result for `Cn1cc(-c2cnc(N3CCOCC3)nc2)cc1C(=O)NCCO` reads -6.33%; that for `Cn1ccc2ccc(C(=O)N3CCN(C(=O)N4CCOCC4)CC3)cc21`, 23.3%; that for `OCC1(O)CCCN(Cc2nnc(-c3ccccc3)o2)CC1` (stereo not given), -7.78%.
The figure for `CN(Cc1cccnc1)CC1CCCN1c1cccnn1` (stereo not given) is 13.1%; for `CC1CCCN(CCCNC(=O)Cc2csc(-c3ccoc3)n2)C1` (stereo not given) it is -3.83%; for `Cc1ccc(C2COCCN2C(=O)c2ccsc2)o1` (stereo not given) it is -8.5%.
The result for `CCOc1ccc(Cl)c(C(=O)N2CCN(c3ccncc3)CC2)n1` reads -13.6%; that for `c1cc(C2CC2)n2cnc(C3CN(Cc4nccs4)CCO3)c2c1` (stereo not given), -1.41%.
On to `COc1cc(F)c(C(=O)N2C[C@@H](CN(C)CCO)[C@@H](CO)C2)c(F)c1`, for which the cytotoxicity at 70.5 h is -2.86%.
As to `COc1cccc(NC(C(N)=O)c2ccc(Br)cc2)c1` (stereo not given), the cytotoxicity at 70.5 h is -10.7%.
The figure for `Cc1ccc(Br)cc1C(=O)Nc1cc(C(N)=O)n(C)c1` is -8.22%; for `COCCC(=O)N1CCC(c2cncc(Oc3cccnc3)n2)CC1` it is -0.961%.
The result for `CN(C)C1Cc2ccccc2N(S(=O)(=O)c2ccc(C#N)cc2)C1` (stereo not given) reads -7.27%; that for `CCCN(CC(=O)OC)S(=O)(=O)c1cnc2c(c1)c(C)nn2C`, -7.82%.
The result for `COc1ccc(C(=O)N2CCOC3(CNCCOC3)C2)c(OC)n1` (stereo not given) reads 28%; that for `CCC(C)(C)NC(=O)C[S+]([O-])Cc1csc(C2CCCC2)n1` (stereo not given), 11%.
Turning to `CC(=O)N1CCc2ccc(NC(=O)c3cn(C)nn3)cc2C1`, the cytotoxicity at 70.5 h is -5.41%.
The result for `Cc1cnn(CC2CCCN2CC(=O)Nc2cc(C)nn2C)c1` (stereo not given) reads 9.7%.
The result for `CCc1nc(CN(C(C)=O)C2CCN(CC3CCOCC3)C2)no1` (stereo not given) reads -9.95%.
The figure for `CCCNC(=O)NCc1nc(C)c(C)o1` is 7.79%.
`CCN(C(=O)CN1CCC(c2n[nH]c(C3CC3)n2)CC1)C1CC1`: the cytotoxicity at 70.5 h is -5.09%.
The figure for `CC(C(=O)O)N1CCc2onc(-c3ccc4c(c3)OCO4)c2C1` (stereo not given) is -3.84%; for `CCC(O)CN1CCN(C(=O)c2cnn(-c3ccccc3F)c2)CC1` (stereo not given) it is 2.94%.
The result for `Cn1cncc1CN1CCC2(CC1)CCN2c1ncccn1` reads -2.28%; that for `Cc1oc(-c2ccoc2)nc1CN1CCCCC1CCc1ccccc1` (stereo not given), -2.03%.
As for `CC(C)Oc1ncccc1CNC(=O)N1CCC(C(N)=O)C1` (stereo not given), the cytotoxicity at 70.5 h was -12.5%.
The result for `CCc1nc(C(=O)N2CCN(C(=O)CCc3ccccc3)CC2)c[nH]1` reads -6.61%.
The result for `Cc1ccccc1C(=O)NCC(O)c1ccc(F)c(F)c1` (stereo not given) reads -5.82%; that for `O=C1N(Cc2cccc(F)c2)CCC12CCCNC2` (stereo not given), -13.6%.
`CC(=O)N(CCc1nc(-c2cc(C(N)=O)oc2C)cs1)C(C)C`: the cytotoxicity at 70.5 h was -8.28%.
The figure for `Cc1nn(C)c(C)c1OCC(=O)N1CCCCC1` is -2.11%.
The result for `Cc1cc(=O)n2c3c(cc(S(=O)(=O)NC4CC4)cc13)CCC2` reads 31.9%.
The figure for `CN1CCCN(S(C)(=O)=O)c2cc(F)ccc21` is -3.48%.
For `Cn1c(N2CCOCC2)nc2cc(C(=O)NCc3cccnc3)ccc21`, the cytotoxicity at 70.5 h is -9.04%.
The figure for `O=C(NCc1ccc2[nH]c(=O)[nH]c2c1)c1ccc(CN2CCCC2)o1` is -9.98%.
The figure for `CN(CCCOc1ccccc1Cl)C(=O)CN1CCNC1=O` is -1.34%.
As for `OCC1CCCN1c1cc(N2CCC(OC3CCCC3)CC2)ncn1` (stereo not given), the cytotoxicity at 70.5 h was -3.18%.
The figure for `CC(=O)N1CCC(c2nc3ccc(C)cn3n2)CC1` is -0.807%.
The result for `O=c1cc(CN2CCCC2)nc2n1CCCN(Cc1ccoc1)C2` reads 1.82%; that for `O=C(CN(Cc1cccnc1)CC1CCCO1)Nc1ccc(F)cc1` (stereo not given), 2.4%; that for `O=C(NC1CC1)C1CNCCN1C(=O)CCc1ccc2c(c1)OCO2` (stereo not given), -3.72%.
The result for `Cc1ccc([C@@H]2CN(C(=O)c3ccon3)C[C@H]2NC(=O)C2CC2)cc1` reads -0.162%.
In the case of `O=C(CCc1nc(-c2ccccc2)no1)N[C@H]1COC[C@@H]1N1CCCC1`, the cytotoxicity at 70.5 h is -9.03%.
The figure for `CC(NCc1cnc(C2CCC2)s1)c1ccc(-n2cncn2)cc1` (stereo not given) is -5.3%; for `CC(=O)N1CCCN(C(=O)Nc2ccccc2N2CCOC2=O)CC1` it is -4.99%; for `Cc1cnn(CCNCc2csc(C)n2)c1` it is -5.62%.
The result for `CNC(=O)[C@H]1C[C@@H]2CN(S(=O)(=O)c3ccc(F)cc3)C[C@@H]2N1C` reads 5.56%.
The figure for `Cc1c(S(=O)(=O)NCC(C)C)cnn1C` is -14.3%; for `CC(NCC1CCN(CCO)CC1)c1ccc(Cl)cc1` (stereo not given) it is 10.5%; for `CCC(CC)(CNC(=O)OC(C)(C)C)NC(=O)C1CC1` it is 16.7%.
Regarding `Cc1cc(C)cc(NCCC(=O)NCc2cccnc2N(C)C)c1`, the cytotoxicity at 70.5 h is -5.81%.
The result for `NC(=O)c1cnc(NC2CC2)nc1CCNC(=O)Cc1ccccc1` reads -5.85%.
The figure for `CN(C)c1ccc(CCCNC(=O)NCC(O)c2cccs2)cc1` (stereo not given) is -8.37%.
The figure for `Cc1cn2c(n1)CCC(NC(=O)CCOc1ccccc1F)C2` (stereo not given) is -5.57%; for `Cc1nc(NCC2CC2)nc2c1COCC21CCN(CC(=O)N(C)C)C1` (stereo not given) it is -14.8%; for `CSCc1ccc(C(=O)N2CCN(CC(C)O)CC2)cc1` (stereo not given) it is -15.3%.
`O=C(c1ncoc1-c1ccco1)N1CCCN(c2nccs2)CC1`: the cytotoxicity at 70.5 h is -2.69%.
The figure for `O=C(Cc1ccccc1F)N1CCN(C(=O)c2ccoc2)CC1` is -1.84%.
The figure for `O=C(NCCC1CCN(CC(F)(F)F)CC1)C1CCCO1` (stereo not given) is -1.77%; for `CC(C)(C)C(=O)NCc1nccn1CCc1ccccc1` it is -5.7%.
The result for `Cc1cnn(CCC(=O)N2CCC3(CCC(=O)N(CC4CC4)C3)CC2)c1` reads -6.95%; that for `O=c1c2cccc(F)c2ncn1CCN1CCOCC1`, -3.65%; that for `COC(=O)c1ccc(NC(C)c2ccc3c(c2)CCC(=O)N3)nn1` (stereo not given), -8.66%.
With `O=C(Cc1ccsc1)N1C[C@@H]2CN(Cc3ccoc3)CCO[C@@H]2C1`, the cytotoxicity at 70.5 h is -11.4%.
The result for `COCCN1CCCC(CCCc2ccccn2)(C(N)=O)C1` (stereo not given) reads -6.05%; that for `COC(=O)c1cc(CN2CCN(c3nc(C)cnc3C)CC2)ccc1O`, -1.95%.
As to `CN(C)S(=O)(=O)N1CCN(c2ccnc(N3CCCCC3)n2)CC1`, the cytotoxicity at 70.5 h is -8.18%.
The result for `Cc1nc(C)n(CC2CCCN2CCOc2ccc(F)cc2)n1` (stereo not given) reads -9.83%; that for `CN1CCC2(Cc3ccccc3CN(C(=O)Cc3cccc(Cl)c3)C2)C1` (stereo not given), 30.2%.
The result for `CCOc1ccc(NC(C)=O)cc1S(=O)(=O)Nc1ccon1` reads 4.6%; that for `CCCn1cc(NC2CCSCC2)cn1`, 2.92%; that for `CN1CCN(c2ccc(F)cc2NC(=O)NCCn2ccnc2)CC1`, -0.0867%.
Turning to `COc1cc(Cl)c(C)cc1NC(=O)CNc1ccn(CC(N)=O)n1`, the cytotoxicity at 70.5 h was -7.27%.
The figure for `O=C(CCn1cncn1)N1CC[C@@H](c2ccc3ccccc3c2)[C@H](O)C1` is -10.5%.
